From patent publication US7414107B2, “Pharmacologically active peptide conjugates having a reduced tendency towards enzymatic hydrolysis” (priority 1998, dated 2008)
Where a SMILES comes first, the peptide text is derived from it. Where no end group is shown, it is not given here. [ ]: non-standard residue; d: D form. Dap = NC[C@H](N)C(=O)O

What was measured:
leucine aminopeptidase = molecular target: T1, leucine aminopeptidase (Sus scrofa, UniProt P28839); experiment: Hydrolysis kinetics in leucine aminopeptidase solution; assay type: in vitro ADME, porcine; conditions: 50 mM phosphate buffer pH 7.4, 37° C., leucine aminopeptidase 25 U/ml; for half-life: pig
T1 construct: purchased Sigma, UK type III-CP (catalogue number not given); host or cells: porcine kidney
T1 sequence (P28839 1-519): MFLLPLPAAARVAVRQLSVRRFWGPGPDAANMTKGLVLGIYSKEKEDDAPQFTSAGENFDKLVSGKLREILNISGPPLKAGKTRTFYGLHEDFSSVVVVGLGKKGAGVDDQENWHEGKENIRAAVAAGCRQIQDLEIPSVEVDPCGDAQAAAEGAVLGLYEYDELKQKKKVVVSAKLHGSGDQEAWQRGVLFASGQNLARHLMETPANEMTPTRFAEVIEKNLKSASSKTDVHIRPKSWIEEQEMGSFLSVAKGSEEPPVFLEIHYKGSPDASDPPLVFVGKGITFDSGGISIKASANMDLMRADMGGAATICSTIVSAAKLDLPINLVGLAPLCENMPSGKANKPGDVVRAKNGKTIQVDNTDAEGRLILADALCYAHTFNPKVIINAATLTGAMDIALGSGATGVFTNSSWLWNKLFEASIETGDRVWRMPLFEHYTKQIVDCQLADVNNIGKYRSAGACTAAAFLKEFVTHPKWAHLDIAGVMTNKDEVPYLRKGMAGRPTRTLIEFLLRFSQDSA
How it was run: (§1)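 Peptide conjugate or native peptide at ~0.1 mg/ml final (10^−5-10^−4M) incubated at 37° C in 50 mM phosphate pH 7.4 with leucine aminopeptidase (25 U/ml) or carboxypeptidase A (1 or 25 U/ml). Timed samples quenched with TFA/acetonitrile and quantified by RP-HPLC at 215 nm. t1/2 = ln2/kobs from first-order log plots.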

carboxypeptidase A = molecular target: T2, carboxypeptidase A (Bos taurus, UniProt P00730); experiment: Hydrolysis kinetics in carboxypeptidase A solution; assay type: in vitro ADME, bovine; conditions: 50 mM phosphate buffer pH 7.4, 37° C., carboxypeptidase A 1 U/ml
T2 construct: purchased Sigma, UK type I (catalogue number not given); host or cells: bovine pancreas
T2 sequence (P00730 111-419): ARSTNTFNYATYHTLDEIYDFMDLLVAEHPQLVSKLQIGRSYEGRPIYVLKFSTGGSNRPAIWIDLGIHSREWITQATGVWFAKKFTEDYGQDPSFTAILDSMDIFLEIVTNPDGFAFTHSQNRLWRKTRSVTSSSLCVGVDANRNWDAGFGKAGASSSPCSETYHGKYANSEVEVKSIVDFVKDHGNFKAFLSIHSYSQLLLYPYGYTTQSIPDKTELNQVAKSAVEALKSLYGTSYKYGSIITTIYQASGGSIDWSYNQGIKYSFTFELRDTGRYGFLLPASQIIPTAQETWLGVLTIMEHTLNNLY
How it was run: as §1

guinea pig illeum = conditions: agonist, induced contraction, illeum not electrically stimulated
Procedure: Following application of the compounds the induced contraction was measured.

PTH (1-34)-antibody = conditions: EIAS(h)-6101 from Peninsula Laboratories; cited from earlier work
[1] = Stability in mouse plasma at 37° C. (vas deferens bioassay readout)
Source text: (§2) Prior to addition of the plasma sample, a standard dose-response curve was generated in each preparation in order to express the inhibitory activity as concentration of each test substance. Thus, the calculated concentration is a reflection of inhibitory activity in the vas deferens bioassay preparation.
(§3) Where initial=initial […] contraction force prior to addition of test substance; conc=concentration of test substance; EC50=concentration of test substance that […] produced half maximal inhibition of electrically-induced contraction; background=contraction force during maximal relaxation.
All enkephalin analogues were dissolved in Krebs buffer in a concentration of 1 mM. Sixty-six μl of each test substance solution (66 nmol enkephalin analog) was incubated with 600 μl plasma at 37° C. […] Functional activity of each test substance in plasma was expressed as the concentration of the test substance that elicited the same inhibition of electrically-induced contraction in the vas deferens bioassay. T1/2 was calculated by fitting the time-concentration data to the equation: conc(t)=conc(0)·e^(−ln2/T1/2)·t where conc(0)=concentration at t=0.

vas deferens = conditions: read-out: EC50 value; half maximal inhibition of electrically-induced contraction, mouse vas deferens
Procedure: (§4) In short: vasa deferentia were isolated from male mice weighing 20-30 g (Mellegaard breeding, DK) and suspended through two electrodes in 10 ml baths at resting tension of 1 g. […] The tissues were stimulated electrically (70 V, 1 ms duration; 0.1 Hz) and contractions were recorded isometrically on a chart recorder. After equilibration of the tissue for at least 20 min, drugs were added in the bath and the maximum effects were measured.
as §2, §3

osteoblast = experiment: Osteoblast retraction assay; assay type: cell-based, mice
Procedure: Retraction assays were performed with osteoblast prepared from calvaria of 1-day old mice according to published protocols (Miller et al., 1976, Science 192:1340-1343). In brief, osteoblasts were seeded in serum-free minimal essential medium-α (αMEM) at a density of 3000 cells per cm^2 into 96-well tissue culture plates coated with 50 μg/ml of type I collagen in phosphate-buffered saline containing 0.1% bovine serum albumin (PBS). One day after plating, PTH compounds were added to a final concentration of 10 nM and incubation was carried out for 1 h. Cells were then fixed and stained with toluidine blue, and the number of retracted cells was counted by visual inspection.

[2] = Bioavailability in mice: functional activity in serum after p.o. or i.v. dosing (vas deferens bioassay)
Procedure: Blood samples were centrifuged immediately (3000 g, 4° C.) and serum was isolated and used for activity determination.
as §4

CSCC[C@H](NC(=O)[C@H](CC(C)C)NC(=O)CNC(=O)[C@H](Cc1ccccc1)NC(=O)[C@H](Cc1ccccc1)NC(=O)[C@H](CCC(N)=O)NC(=O)[C@H](CCC(N)=O)NC(=O)[C@@H]1CCCN1C(=O)[C@H](CCCCN)NC(=O)[C@@H]1CCCN1C(=O)[C@@H](N)CCCNC(=N)N)C(N)=O [Substance P-NH2, H-Arg-Pro-Lys-Pro-Gln-Gln-Phe-Phe-Gly-Leu-Met-NH2, reference compound]
pseudo first-order rate constant for the degradation (leucine aminopeptidase): 0.045 min⁻¹
half-life (leucine aminopeptidase): 16 min
half-life (carboxypeptidase A): 35 min
pseudo first-order rate constant for the degradation (carboxypeptidase A): 0.02 min⁻¹
EC50 (guinea pig illeum): 40 nM

hPTH(39-68): human PTH fragment listed in the EIA kit specificity (APLAPRDAGSQRPRKKEDNVLVESHEKSLG; Parathyroid hormone; UniProt P01270 70-99, looked up, fragment)
Specificity of the assay (PTH (1-34)-antibody): 0%

H-YGGFLKEEEEK-OH [Leu-Enkephalin-(Lys-Glu4-Lys)-OH, H-Tyr-Gly-Gly-Phe-Leu-Lys-Glu-Glu-Glu-Glu-Lys--OH]
half-life at 99 µM ([1]; mouse plasma): 84.5 min
pseudo first-order rate constant for the degradation (leucine aminopeptidase): 0.065 min⁻¹
half-life (leucine aminopeptidase): 11 min
half-life (carboxypeptidase A): 1160 min
pseudo first-order rate constant for the degradation (carboxypeptidase A): 0.0006 min⁻¹
EC50 (vas deferens): 357 nM

CC[C@H](C)[C@H](NC(=O)[C@H](CCC(=O)O)NC(=O)[C@H](CO)NC(=O)[C@@H](NC(=O)[C@@H](N)CO)C(C)C)C(=O)N[C@@H](CCC(N)=O)C(=O)N[C@@H](CC(C)C)C(=O)N[C@@H](CCSC)C(=O)N[C@@H](Cc1c[nH]cn1)C(=O)N[C@@H](CC(N)=O)C(=O)N[C@@H](CC(C)C)C(=O)NCC(=O)N[C@@H](CCCCN)C(=O)N[C@@H](Cc1c[nH]cn1)C(=O)N[C@@H](CC(C)C)C(=O)N[C@@H](CC(N)=O)C(=O)N[C@@H](CO)C(=O)N[C@@H](CCSC)C(=O)N[C@@H](CCC(=O)O)C(=O)N[C@@H](CCCNC(=N)N)C(=O)N[C@H](C(=O)N[C@@H](CCC(=O)O)C(=O)N[C@@H](Cc1c[nH]c2ccccc12)C(=O)N[C@@H](CC(C)C)C(=O)N[C@@H](CCCNC(=N)N)C(=O)N[C@@H](CCCCN)C(=O)N[C@@H](CCCCN)C(=O)N[C@@H](CC(C)C)C(=O)N[C@@H](CCC(N)=O)C(=O)N[C@@H](CC(=O)O)C(=O)N[C@H](C(=O)N[C@@H](Cc1c[nH]cn1)C(=O)N[C@@H](CC(N)=O)C(=O)N[C@@H](Cc1ccccc1)C(=O)O)C(C)C)C(C)C [PTH(1-34)(Human)-OH, H-Ser-Val-Ser-Glu-Ile-Gln-Leu-Met-His-Asn-Leu-Gly-Lys -His-Leu-Asn-Ser-Met-Glu-Arg-Val-Glu-Trp-Leu-Arg-Lys-Lys-Leu-Gln-Asp-Val-His -Asn-Phe-OH, reference compound]
pseudo first-order rate constant for the degradation (leucine aminopeptidase): 0.0021 min⁻¹
half-life (leucine aminopeptidase): 330 min
half-life (carboxypeptidase A): 0.13 min
pseudo first-order rate constant for the degradation (carboxypeptidase A): 5.2 min⁻¹
Specificity of the assay (PTH (1-34)-antibody): 100%
Retraction assay % Retracted cells (osteoblast; 10 nM, 1 h, mouse calvaria osteoblasts): 58.2%
activity relative to native, human parathyroid hormone (osteoblast; Osteoblast retraction assay): approximately 89%

CC(C)C[C@H](NC(=O)[C@H](Cc1ccccc1)NC(=O)CNC(=O)CNC(=O)[C@@H](N)Cc1ccc(O)cc1)C(=O)N[C@@H](CN)C(=O)N[C@@H](CN)C(=O)N[C@@H](CN)C(=O)N[C@@H](CN)C(=O)N[C@@H](CN)C(=O)N[C@@H](CN)C(=O)O [Leu-Enkephalin-(Dpr)6-OH, H-Tyr-Gly-Gly-Phe-Leu-(Dpr)6-OH] (H-YGGFL[Dap][Dap][Dap][Dap][Dap][Dap]-OH)
half-life at 99 µM ([1]; plasma): 19.8 min
pseudo first-order rate constant for the degradation (leucine aminopeptidase): 0.17 min⁻¹
half-life (leucine aminopeptidase): 4.2 min
half-life (carboxypeptidase A): 29 min
pseudo first-order rate constant for the degradation (carboxypeptidase A): 0.024 min⁻¹
EC50 (vas deferens): 200 nM

hPTH(1-38): human PTH fragment listed in the EIA kit specificity (SVSEIQLMHNLGKHLNSMERVEWLRKKLQDVHNFVALG; Parathyroid hormone; UniProt P01270 32-69, looked up, fragment)
Specificity of the assay (PTH (1-34)-antibody): 100%

H-KKKKKKRPKPQQFFGLM-NH2 [(Lys)6-Substance P-NH2, H-(Lys)6 Arg-Pro-Lys-Pro-Gln-Gln-Phe-Phe-Gly-Leu -Met-NH2]
pseudo first-order rate constant for the degradation (leucine aminopeptidase): 0.002 min⁻¹
half-life (leucine aminopeptidase): 347 min
EC50 (guinea pig illeum): 5 nM

YGGFLKKKKKK [Leu-Enkephalin-(Lys)6-OH, H-Tyr-Gly-Gly-Phe-Leu-Lys6-OH]
half-life at 99 µM ([1]; plasma): 18.7 min
pseudo first-order rate constant for the degradation (leucine aminopeptidase): 0.0097 min⁻¹
half-life (leucine aminopeptidase): 72 min
pseudo first-order rate constant for the degradation (carboxypeptidase A): 0.0007 min⁻¹
half-life (carboxypeptidase A; cattle, carboxypeptidase A solution (1 U/ml) in phosphate buffer): 990 min
EC50 (vas deferens): 160 nM
Functional activity in serum ([2]; 50 mg/kg i.v., 5 min): 15.9 ± 2.4 µM
Functional activity in serum ([2]; 50 mg/kg i.v., 15 min): 8.5 ± 1.2 µM
Functional activity in serum ([2]; 50 mg/kg i.v., 30 min): 6 ± 0.95 µM
Functional activity in serum ([2]; 50 mg/kg i.v., 60 min): 1.6 ± 0.34 µM
Functional activity in serum ([2]; 50 mg/kg i.v., 180 min): 0.44 ± 0.11 µM
Functional activity in serum ([2]; 50 mg/kg i.v., 240 min): 2.5 ± 0.32 µM
Functional activity in serum ([2]; 50 mg/kg i.v., 370 min): 31.2 ± 8.62 µM
Functional activity in serum ([2]; 50 mg/kg i.v., 720 min): <Detection Limit
Functional activity in serum ([2]; 50 mg/kg i.v., 1080 min): <Detection Limit
Functional activity in serum ([2]; 50 mg/kg i.v., 1440 min): <Detection Limit
time at which activity in serum reached a maximum ([2]; 50 mg/kg p.o.): 90 to 240 min
Functional activity in serum ([2]; 50 mg/kg p.o., 0 min): 0 µM
Functional activity in serum ([2]; 50 mg/kg p.o., 15 min): <Detection Limit
Functional activity in serum ([2]; 50 mg/kg p.o., 30 min): 3 ± 0.8 µM
Functional activity in serum ([2]; 50 mg/kg p.o., 60 min): 6 ± 1.3 µM
Functional activity in serum ([2]; 50 mg/kg p.o., 90 min): 10.9 ± 3.8 µM
Functional activity in serum ([2]; 50 mg/kg p.o., 240 min): 10.7 ± 0.23 µM
Functional activity in serum ([2]; 50 mg/kg p.o., 480 min): 5 ± 0.58 µM
Functional activity in serum ([2]; 50 mg/kg p.o., 960 min): 2.8 ± 0.78 µM
Functional activity in serum ([2]; 50 mg/kg p.o., 1380 min): <Detection Limit

B1: hPTH(1-84): full-length human PTH listed in the EIA kit specificity (protein, UniProt P01270 32-115, looked up)
Parathyroid hormone: SVSEIQLMHNLGKHLNSMERVEWLRKKLQDVHNFVALGAPLAPRDAGSQRPRKKEDNVLVESHEKSLGEADKADVNVLTKAKSQ
modifications: Parathyroid hormone
Specificity of the assay (PTH (1-34)-antibody): 0%
